From paper PMC11229689, “In Vitro Selection of Macrocyclic L-α/D-α/β/γ-Hybrid Peptides Targeting IFN-γ/IFNGR1 Protein–Protein Interaction” (Journal of the American Chemical Society, 2024)
*1 amine or outer side, *2 acyl side, *3 side chain or, on linkers, in order; H or OH if unused. Where a SMILES comes first, the peptide text is derived from it. Bridges are numbered along the chain shown (N, C = ends). [ ]: non-standard residue; d: D form. Acbc(trans-1,3) = O=C([C@H]1C[C@H](N[*:1])C1)[*:2]; Acbc(cis-1,3) = O=C([C@H]1C[C@@H](N[*:1])C1)[*:2]; X1 = O=C([C@@H]1CCC[C@@H]1N[*:1])[*:2]

What was measured:
Fc-tagged human IFNGR1 = target: T1, Fc-tagged human IFNGR1 (Homo sapiens, UniProt P15260); assay: Binding kinetics and affinity to IFNGR1 by surface plasmon resonance (SPR); conditions: SPR, 25 °C, 1:1 binding model; for Kd: read-out: KD; for kon: single-cycle kinetics, read-out: ka
T1 construct: purchased ACROBiosystems
T1 sequence (P15260 18-489): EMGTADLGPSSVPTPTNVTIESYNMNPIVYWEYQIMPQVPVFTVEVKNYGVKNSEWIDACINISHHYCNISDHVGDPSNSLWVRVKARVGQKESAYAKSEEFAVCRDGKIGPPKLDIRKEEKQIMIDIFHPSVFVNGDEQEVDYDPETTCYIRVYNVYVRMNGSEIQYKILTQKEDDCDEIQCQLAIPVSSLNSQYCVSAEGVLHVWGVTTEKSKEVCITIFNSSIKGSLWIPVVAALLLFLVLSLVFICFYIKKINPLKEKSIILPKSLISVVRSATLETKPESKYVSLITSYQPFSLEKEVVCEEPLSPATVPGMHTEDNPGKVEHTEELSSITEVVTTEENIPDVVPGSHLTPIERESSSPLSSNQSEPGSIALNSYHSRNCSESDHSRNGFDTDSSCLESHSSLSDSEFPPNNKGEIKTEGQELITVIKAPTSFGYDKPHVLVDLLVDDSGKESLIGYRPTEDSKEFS
Description: Binding affinities of IA1 and IA2 against IFNGR1 were evaluated by surface plasmon resonance (SPR) (Table 1 and SI Figure S6A). […] To investigate the contribution of the N-terminal [yVPβ^1RR] motif and β^1 residue in IA1, three scrambled peptides IA1s1–3 and a variant IA1β^14A were synthesized and evaluated. […] We next evaluated inhibitory activities of IA1 and IA2 against the ligand–receptor PPI between IFN-γ and IFNGR1 using AlphaLISA (Table 1 and SI Figure S7).[37] […] We also determined the serum half-lives of IA1 and IA2, considering peptidase resistance as an important factor for therapeutic peptides.[24] A sample peptide and a peptidase-resistant internal standard peptide were coincubated in human serum at 37 °C, and the relative amount of the remaining sample peptide was estimated by LC/MS. […]
Evaluation of binding affinity of peptides by surface plasmon resonance The binding affinities of selected peptides and IFNGR1 were analyzed by surface plasmon resonance (SPR) using a Biacore T200 instrument (Cytiva) at 25 °C with the following running buffer: 10 mM Tris-HCl (pH 8.0), 150 mM NaCl, 0.05% (v/v) Tween 20 , and 0.1% (v/v) DMSO. Fc-tagged IFNGR1 was immobilized on a series S sensor chip protein G (Cytiva) to a surface density of 1,200–1,600 response units following the immobilization protocols provided by Cytiva. The kinetic constants were determined by a single-cycle kinetics method by the injection of five different concentrations (twofold dilution series) of each peptide at a flow rate of 30 μL/min. The resulting sensorgrams were fitted to the standard 1:1 interaction model and analyzed using Biacore evaluation software. […]

[1] = target: T2, IFN-γ/IFNGR1 protein–protein interaction (Homo sapiens, UniProt P15260); assay: IFNGR1 inhibition assay using AlphaLISA; format: biochemical; conditions: four-parameter dose–response fit, n = 3
T2 construct: purchased ACROBiosystems
T2 sequence (P15260 18-245 limits assumed): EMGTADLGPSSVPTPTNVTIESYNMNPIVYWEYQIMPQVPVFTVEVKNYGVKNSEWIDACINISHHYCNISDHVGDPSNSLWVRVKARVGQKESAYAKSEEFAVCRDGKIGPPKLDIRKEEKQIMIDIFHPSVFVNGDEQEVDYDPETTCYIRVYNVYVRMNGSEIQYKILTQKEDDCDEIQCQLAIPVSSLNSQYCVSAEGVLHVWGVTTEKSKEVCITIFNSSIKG
Description: IFNGR1 inhibition assay using AlphaLISA
The inhibitory activity of peptides against IFN-γ/IFNGR1 protein–protein interaction (PPI) was determined by AlphaLISA.5 Peptides, proteins, and beads were diluted in AlphaLISA immunoassay buffer (PerkinElmer, AL000C). 3.6 μL of 5 nM Fc-tagged IFNGR1 and 3.6 μL of synthetic peptides were mixed in AlphaPlate-384 Shallow Well (PerkinElmer) and preincubated at 25 °C for 10 min. 3.6 μL of 15 nM biotin-tagged IFN-γ was then added to the mix and incubated at 25 °C for 20 min. 3.6 μL each human IgG acceptor beads (PerkinElmer) and streptavidin donor beads (PerkinElmer) were added to the above mix and incubated at 25 °C for 30 min in dark place. Emission at 615 nm was measured […]
by EnSpire Multimode Plate Reader (PerkinElmer). The fraction of bound IFN-γ/IFNGR1 was calculated by the intensity of emission in the presence of peptide divided by that in the absence of […]
peptide. […]
Puromycin. Normocin, Blasticidin, Zeocin, and Puromycin were excluded when conducting the experiments. To evaluate the cellular activity of peptides, peptide mixtures were added to 50,000 cells/well in a flat-bottom 96-well plate and pre-incubated for 30 min at 37 °C before stimulation.
Subsequently, 1 ng/mL of recombinant IFN-γ (InvivoGen) was added to each well in a final reaction volume of 200 μL, followed by incubation for 20 h at 37 °C. 20 μL of supernatants from the induced cells was added to 180 μL Q U A N T I-Blue TM solution (InvivoGen). After further incubation for 3 h at 37 °C, the expression levels of the secreted embryonic alkaline phosphatase (SEAP) were determined by reading the O.D. at 650 nm on a Tecan M1000 PRO microplate reader (Tecan Group) and normalized to the non-treated well. IC50 value was analyzed by a normalized dose-response curve fitting by using GraphPad Prism 9.
HEK-DualTM IFN-γ cells were used for the cell viability assay. 10,000 cells/well were added to each well in a flat-bottom 96-well plate. After 24 h, peptide mixtures were added to each well in a final volume of 100 μL. After further incubation for 24 h, 10 μL CCK-8 reagent (Dojindo) was added to […]

Kd (Fc-tagged human IFNGR1)	kon (Fc-tagged human IFNGR1)	IC50 [1]	SMILES
87 ± 2 nM	180000 M⁻¹ s⁻¹	87 ± 15 nM	CC(C)[C@@H]1NC(=O)[C@@H](Cc2ccc(O)cc2)NC(=O)CSC[C@H](C(N)=O)NC(=O)[C@H](CC(N)=O)NC(=O)[C@H](CO)NC(=O)[C@H](CCCNC(=N)N)NC(=O)[C@H]2C[C@H](C2)NC(=O)[C@H](Cc2c[nH]cn2)NC(=O)[C@H](CC(N)=O)NC(=O)[C@H]([C@@H](C)O)NC(=O)[C@H](Cc2c[nH]cn2)NC(=O)[C@H](CCCNC(=N)N)NC(=O)[C@H](CCCNC(=N)N)NC(=O)[C@@H]2CCC[C@@H]2NC(=O)[C@@H]2CCCN2C1=O [IA1, ^AcyVPβ^1RRHTNHγ^1RSNc-NH2] ({CH2CO}-[dY]VP[X1]RRHTNH[Acbc(cis-1,3)]RSN[dC]-NH2; thioether N-15)
11 nM	650000 ± 20000 M⁻¹ s⁻¹	12 ± 3 nM	CC(C)[C@@H]1NC(=O)[C@@H](Cc2ccc(O)cc2)NC(=O)CSC[C@H](C(N)=O)NC(=O)[C@H](CCCNC(=N)N)NC(=O)[C@H](CO)NC(=O)[C@H](CCCNC(=N)N)NC(=O)[C@H](Cc2c[nH]cn2)NC(=O)CNC(=O)[C@H]2C[C@H](C2)NC(=O)[C@H](Cc2c[nH]cn2)NC(=O)[C@H](CC(N)=O)NC(=O)[C@H](CCCNC(=N)N)NC(=O)[C@H](CCCNC(=N)N)NC(=O)[C@@H]2CCC[C@@H]2NC(=O)[C@H](C)NC1=O [IB1, ^AcyVAβ^1RRNHγ^1GHRSRc-NH2] ({CH2CO}-[dY]VA[X1]RRNH[Acbc(cis-1,3)]GHRSR[dC]-NH2; thioether N-15)
> 10000 nM	–	> 100000 nM	CC(C)[C@@H]1NC(=O)[C@@H](Cc2ccc(O)cc2)NC(=O)CSC[C@H](C(N)=O)NC(=O)[C@H](CCCNC(=N)N)NC(=O)[C@H](CO)NC(=O)[C@H](CCCNC(=N)N)NC(=O)[C@H](Cc2c[nH]cn2)NC(=O)CNC(=O)[C@H]2C[C@H](C2)NC(=O)[C@H](Cc2c[nH]cn2)NC(=O)[C@H](CC(N)=O)NC(=O)[C@H](CCCNC(=N)N)NC(=O)[C@H](CCCNC(=N)N)NC(=O)[C@H](C)NC(=O)[C@H](C)NC1=O [IB1β^14A, ^AcyVAA RRNHγ^1GHRSRc-NH2] ({CH2CO}-[dY]VAARRNH[Acbc(cis-1,3)]GHRSR[dC]-NH2; thioether N-15)
68 ± 12 nM	75000 ± 25000 M⁻¹ s⁻¹	680 ± 50 nM	CC(C)[C@@H]1NC(=O)[C@@H](Cc2ccc(O)cc2)NC(=O)CSC[C@H](C(N)=O)NC(=O)[C@H](C)NC(=O)[C@H](Cc2c[nH]cn2)NC(=O)[C@H](CCCNC(=N)N)NC(=O)[C@H](CCCNC(=N)N)NC(=O)CNC(=O)[C@H]2C[C@@H](C2)NC(=O)[C@H](Cc2c[nH]cn2)NC(=O)[C@H](CC(N)=O)NC(=O)[C@H](CCCNC(=N)N)NC(=O)[C@H](CCCNC(=N)N)NC(=O)[C@@H]2CCC[C@@H]2NC(=O)[C@H](C)NC1=O [IB2γ^19γ^2, ^AcyVAβ^1RRNHγ^2GRRHAc-NH2] ({CH2CO}-[dY]VA[X1]RRNH[Acbc(trans-1,3)]GRRHA[dC]-NH2; thioether N-15)
9.5 ± 0.7 nM	930000 ± 420000 M⁻¹ s⁻¹	12 nM	CC(C)[C@@H]1NC(=O)[C@@H](Cc2ccc(O)cc2)NC(=O)CSC[C@H](C(N)=O)NC(=O)[C@H](C)NC(=O)[C@H](CO)NC(=O)[C@H](CCCNC(=N)N)NC(=O)[C@H](CCCNC(=N)N)NC(=O)CNC(=O)[C@H]2C[C@H](C2)NC(=O)[C@H](Cc2c[nH]cn2)NC(=O)[C@H](CC(N)=O)NC(=O)[C@H](CCCNC(=N)N)NC(=O)[C@H](CCCNC(=N)N)NC(=O)[C@@H]2CCC[C@@H]2NC(=O)[C@H](C)NC1=O [IB3, ^AcyVAβ^1RRNHγ^1GRRSAc-NH2] ({CH2CO}-[dY]VA[X1]RRNH[Acbc(cis-1,3)]GRRSA[dC]-NH2; thioether N-15)
49 ± 7 nM	470000 ± 320000 M⁻¹ s⁻¹	350 ± 30 nM	CC(C)[C@@H]1NC(=O)[C@@H](Cc2ccc(O)cc2)NC(=O)CSC[C@H](C(N)=O)NC(=O)[C@H](C)NC(=O)[C@H](CO)NC(=O)[C@H](CCCNC(=N)N)NC(=O)[C@H](CCCNC(=N)N)NC(=O)CNC(=O)[C@H]2C[C@@H](C2)NC(=O)[C@H](Cc2c[nH]cn2)NC(=O)[C@H](CC(N)=O)NC(=O)[C@H](CCCNC(=N)N)NC(=O)[C@H](CCCNC(=N)N)NC(=O)[C@@H]2CCC[C@@H]2NC(=O)[C@H](C)NC1=O [IB3γ^19γ^2, ^AcyVAβ^1RRNHγ^2GRRSAc-NH2] ({CH2CO}-[dY]VA[X1]RRNH[Acbc(trans-1,3)]GRRSA[dC]-NH2; thioether N-15)
130 ± 20 nM	17000 ± 5000 M⁻¹ s⁻¹	220 ± 10 nM	CC(C)[C@@H]1NC(=O)[C@@H](Cc2ccc(O)cc2)NC(=O)CSC[C@H](C(N)=O)NC(=O)[C@H](CC(N)=O)NC(=O)[C@H](Cc2c[nH]cn2)NC(=O)[C@H](CCCNC(=N)N)NC(=O)[C@H]2C[C@@H](C2)NC(=O)[C@H]([C@@H](C)O)NC(=O)[C@H](Cc2c[nH]cn2)NC(=O)[C@@H]2CCCN2C(=O)[C@H](CO)NC(=O)[C@H](CCCNC(=N)N)NC(=O)[C@H](CCCNC(=N)N)NC(=O)[C@@H]2CCC[C@@H]2NC(=O)[C@@H]2CCCN2C1=O [IB5, ^AcyVPβ^1RRSPHTγ^2RHNc-NH2] ({CH2CO}-[dY]VP[X1]RRSPHT[Acbc(trans-1,3)]RHN[dC]-NH2; thioether N-15)
